Test results from US11154513B2, “Semifluorinated compounds” (NOVALIQ GMBH, priority 2015, dated 2021).
Like-named read-outs stand apart in the source and are kept apart here. Each block holds one molecule with its values, some of them ahead of it.

Key:
[1] = Differential Scanning Calorimetry of mixtures
Experimental: Differential Scanning Calorimetry (DSC 1, Mettler Toledo, Greifensee, Switzerland) is used to characterize structure and phase behavior of mixtures of CF3(CF2)5—CH(CH3)—(CH2)5—CH3 and CF3(CF2)5(CH2)7CH3. DSC was employed to obtain data on transitions by temperature rising scans with heating rate of 1° C./min. Sealed standard aluminum crucibles (40 μl, Mettler Toledo) were used.

[2] = Evaporation time of 10 μL droplet on glass surface; type: physicochemical; settings: for effect of increased amount of the compound on evaporation time of the mixture: FIG. 1; for Evaporation time: 10 μL droplet, glass surface, room temperature; for Evaporation time / Relative Evaporation Time: F4H5 / CF3—(CF2)3—CH(CH3)—(CH2)2—CH3 mixtures; for Relative Evaporation Time: relative to Sample 1
Experimental: The evaporation time of mixtures of the semifluorinated alkane CF3(CF2)3(CH2)4CH3(F4H5) and CF3—(CF2)3—CH(CH3)—(CH2)2—CH3 was evaluated. A droplet of 10 μL volume of each mixture was placed on a glass surface at room temperature. Time until evaporation was recorded by video-monitoring.
The evaporation time of mixtures of the semifluorinated alkane CF3(CF2)5(CH2)7CH3(F6H8) and CF3(CF2)5—CH(CH3)—(CH2)5—CH3 was evaluated analogously.

[3] = Refractive index of the mixtures; type: physicochemical; settings: mixture with the 1-perfluoroalkylalkane; FIG. 2, FIG. 3
Experimental: In a particularly preferred embodiment, the refractive index of the liquid solution is in the range of from about 1.30 to about 1.35 at 20° C., as determined by refractometer.
The refractive index of the mixtures was also determined. For topically applied ophthalmic compositions, the refractive index of the composition should preferably be similar, or adapted to that of the eye and lens, for instance as close to that of physiological tear fluid as possible. If the refractive index of a composition is not similar, when applied to the surface of the eye, a patient may experience blurring or impaired vision. It is observed, that the amount of the compound CF3(CF2)5—CH(CH3)—(CH2)5—CH3 or has an effect on refractive index.

[4] = test system: Rabbit corneas
Experimental: Anim., 2008 (36) p 25-32; and N. Schrage et al, Graefes Arch Clin Exp Ophthalmol 2012 (250), 1330-1340).
Method. Rabbit corneas were obtained and placed in an artificial anterior ocular chamber which was gently filled with serum-free minimal essential medium (Eagle's MEM) containing Earle's salts and HEPES buffer for nutrition. The medium was constantly replenished by a micropump to imitate the physiological condition of the eye. The culture chambers were held at 32° C. under normal air without supplementary CO2 and >95% relative humidity. Five corneas per test substance (n=5) were used except for the positive control with which two corneas (n=2) were tested.
After 12 h of stabilization in the culture chamber, the corneas were evaluated by microscopy and corneas with intact epithelium and without opacities were selected. Four small abrasions (2.3-4.3 mm^2) were applied to the surface of the selected corneas with a cornea drill. All defects were monitored by fluorescein sodium staining (0.17% aq. solution) and microscopy.
The test substances were administered one hour after induction of the corneal erosion and were applied six times daily onto the apex of the corneas (30-50 μL every four hours). A soft-tipped cannula, with continuous suction was placed on the lowest part of the corneoscleral region within the culturing chamber to remove any excess fluid. Experiments were terminated after 3 days of application. Biomicroscopic images of the corneas were taken daily to document the corneal healing process using a phase-contrast microscope integrated camera (KY-F1030U, JVC, (Bad Vilbel, Del.) mounted on a Z16 APO Microscope (Wetzlar, Del.)). All defects were monitored by fluorescein sodium stains (0.17% aq. solution) with yellow green fluorescence indicating the areas of epithelial defects. Erosion sizes were determined using a software tool of the microscope (DISKUS). At the end of the 3 days, the experiment was terminated and all corneas were fixed in 3.7% formaldehyde and stained with a hematoxylin-eosin dye for microscopic evaluation. To monitor the metabolic activity of the cornea, glucose and lactate concentrations were photometrically quantified in the outflow medium from the artificial anterior chambers.

[5] = DSC heating rate 1° C./min, mixture with CF3(CF2)5(CH2)7CH3

Molecule: CCCCCCC(C)C(F)(F)C(F)(F)C(F)(F)C(F)(F)C(F)(F)C(F)(F)F (stereo not shown) [CF3—(CF2)5—CH(CH3)—(CH2)5—CH3, 2-Perfluorohexyl-octane]
effect on melting enthalpy ([1]; presence in a mixture of F6H8): decreased | effect on melting temperature ([1]; presence in a mixture of F6H8): significant reduction | effect of increased amount of the compound on evaporation time of the mixture [2]: significantly decreases the evaporation time | effect of increased content on refractive index of the mixture [3]: increasing refractive index value

Molecule: CCCCCC(F)(F)C(F)(F)C(F)(F)C(F)(F)F [Sample 1, CF3(CF2)3(CH2)4CH3]
Evaporation time [2]: 304 s | Relative Evaporation Time [2]: 1.00

Molecule: CCCC(C)C(F)(F)C(F)(F)C(F)(F)C(F)(F)F (stereo not shown) [CF3—(CF2)3—CH(CH3)—(CH2)2—CH3, 2-Perfluorobutyl-pentane]
effect of increased amount of the compound on evaporation time of the mixture [2]: increase the evaporation time | effect of increased content on refractive index of the mixture [3]: increasing refractive index value

Molecule: benzalkonium chloride [0.01% BAC]
course of induced epithelial lesions [4]: progressive increase of the induced epithelial lesions | Corneal Erosion Size, Mean ([4]; Day 0): 11.57 mm^2 | Corneal Erosion Size, Mean ([4]; Day 1, applied six times daily 30-50 μL): 5.91 mm^2 | Corneal Erosion Size, Mean ([4]; Day 2, applied six times daily 30-50 μL): 8.74 mm^2 | Corneal Erosion Size, Mean ([4]; Day 3, applied six times daily 30-50 μL): 17.46 mm^2

Molecule: CCCC(C)C(F)(F)C(F)(F)C(F)(F)C(F)(F)F (stereo not shown) [Sample 3, CF3—(CF2)3—CH(CH3)—(CH2)2—CH3]
Evaporation time [2]: 322 s | Relative Evaporation Time [2]: 1.064

Low temperature transition Endset [1, 5]: −38.32 °C | Low temperature transition Onset [1, 5]: −45.47 °C | Low temperature transition Peak [1, 5]: −40.37 °C | Low temperature transition ΔH [1, 5]: -0.69 J/g
Molecule: CF3(CF2)5(CH2)7CH3 [0 wt % CF3—(CF2)5—CH(CH3)—(CH2)5—CH3]
